Source: patent publication US20080004272A1, “Compositions and methods for modulating gated ion channels” (PainCeptor Pharma Corporation, priority 2006, published 2008)
Like-named read-outs stand apart in the source and are kept apart here.

Columns and labels:
ASIC1a = biological target: T1, ASIC1a (Homo sapiens, UniProt P78348); experiment: Two-electrode voltage clamp in Xenopus laevis oocytes (Xo), acid-induced currents; format: cell-based; parameters: expressed in transfected cells; host or cells: Xenopus laevis oocytes (nuclear microinjection of expression vector such as pcDNA3); details: for inhibition at 50 µM: Xenopus oocytes, read-out: % inh. at 50 μM (Xo)
T1 sequence (P78348 1-528): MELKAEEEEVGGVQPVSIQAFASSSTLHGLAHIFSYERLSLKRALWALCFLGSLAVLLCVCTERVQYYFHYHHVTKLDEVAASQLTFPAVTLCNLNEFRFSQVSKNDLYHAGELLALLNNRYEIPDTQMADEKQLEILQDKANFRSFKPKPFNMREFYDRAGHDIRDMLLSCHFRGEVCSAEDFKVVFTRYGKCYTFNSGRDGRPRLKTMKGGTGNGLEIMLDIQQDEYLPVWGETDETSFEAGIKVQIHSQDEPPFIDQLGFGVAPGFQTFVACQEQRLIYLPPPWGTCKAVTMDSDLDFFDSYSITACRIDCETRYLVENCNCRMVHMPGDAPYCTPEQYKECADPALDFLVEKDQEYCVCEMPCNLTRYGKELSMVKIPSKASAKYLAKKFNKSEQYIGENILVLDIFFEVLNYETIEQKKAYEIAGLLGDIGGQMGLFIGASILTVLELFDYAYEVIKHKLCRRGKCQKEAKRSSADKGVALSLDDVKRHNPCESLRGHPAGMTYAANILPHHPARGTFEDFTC
Summary of the method: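 Defolliculated oocytes were nuclear-injected with channel cDNA and expressed for 2–4 days at 19 °C. Under two-electrode voltage clamp at room temperature, oocytes were superfused with pH 7.4 Ringer, and currents were evoked by switching to acidic MES Ringer (pH<7). Compound was present in both control and acidic solutions.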

formalin-induced pain = experiment: Formalin test, model of acute tonic pain; format: in vivo; details: rat; for Effect on pain intensity (flinching or licking behaviors): s.c. 30 min prior to formalin injection; for ED50: sc, s.c. 30 min prior to formalin, licking and biting episodes in phase IIa, read-out: ED50, effective dose where the pain score is reduced by half
Experimental: Male Sprague-Dawley rats are housed together in groups of three animals under standard conditions with unrestricted access to food and water. All experiments are conducted according to the ethical guidelines for investigations of experimental pain in conscious animals (Zimmerman, 1983)
Assessment of formalin-induced flinching behavior in normal, uninjured rats (body weight 150-180 g) is made with the use of an Automated Nociception Analyser (University of California, San Diego, USA). Briefly, this involves placing a small C-shaped metal band (10 mm wide×27 mm long) on the hindpaw of the rat to be tested. The rats (four rats are included in each testing session) are then placed in a cylindrical plexiglass observation chamber (diameter 30.5 cm and height 15 cm) for 20 min for adaptation purposes prior to being administered drug or vehicle according to the experimental paradigm being followed. After adaptation, individual rats are then gently restrained and formalin (5% in saline, 50 μl, s.c.) is injected into the plantar surface of the hindpaw using a 27G needle. Rats are then returned to their separate observation chambers, each of which are in turn situated upon an enclosed detection device consisting of two electromagnetic coils designed to produce an electromagnetic field in which movement of the metal band could be detected. […] A sampling interval of 1 min is used and on the basis of the resulting response patterns 5 phases of nociceptive behaviour are identified and scored: first phase (P1; 0-5 min), interphase (Int; 6-15 min), second phase (P2; […]), phase 2A (P2A; 16-40 min) and phase 2B (P2B; 41-60 min).
Nociceptive behavior is also determined manually every 5 min by measuring the amount of time spent in each of four behavioral categories: 0, treatment of the injected hindpaw is indistinguishable from that of the contralateral paw; 1, the injected paw has little or no weight placed on it; 2, the injected paw is elevated and is not in contact with any surface; 3, the injected paw is licked, bitten, or shaken. A weighted nociceptive score, ranging from 0 to 3 is calculated by multiplying the time spent in each category by the category weight, summing these products, and dividing by the total time for each 5 min block of time. […] On the basis of the resulting response patterns, […] of nociceptive behavior are identified and scored: first phase (P1; 0-5 min), interphase (Int; 6-15 min), second phase (P2; […]), phase 2A (P2A; 16-40 min) and phase 2B (P2B; 41-60 min).
Statistical analysis is performed using the Prism™ 4.01 software package (GraphPad, San Diego, Calif., USA). The difference in response levels between treatment groups and control vehicle group is analyzed using an ANOVA followed by Bonferroni's method for post-hoc pair-wise comparisons. […]

SMILES | inhibition at 50 µM (ASIC1a) | IC50 (ASIC1a; Xenopus laevis oocytes, three point dose-response, read-out: IC50, half maximal inhibition of the acid-evoked response in hASIC1a) | Effect on pain intensity (flinching or licking behaviors) (formalin-induced pain) | ED50 (formalin-induced pain) | IC50 (ASIC1a)
COc1ccc(F)cc1-c1cc(C#N)c(N)c2c1CCN(C)C2 [Compound 206, 8-Amino-5-(5-fluoro-2-methoxy-phenyl)-2-methyl-1,2,3,4-tetrahydro-isoquinoline-7-carbonitrile] | 50 to 70% | 34 µM | dose-dependent reduction of the pain intensity | 50 mg/kg | 
CN1CCc2c(-c3ccccc3)cc(C#N)c(N)c2C1 [Compound 203, 8-Amino-2-methyl-5-phenyl-1,2,3,4-tetrahydro-isoquinoline-7-carbonitrile] | > 70% |  | dose-dependent reduction of the pain intensity | 6 mg/kg | 6.2 µM
